This is an account of results in PMC3038857, “Using Nuclear Receptor Activity to Stratify Hepatocarcinogens” (PLoS ONE, 2011).

Molecules are shown by their SMILES.

Data set [1] has as its target T1, ESR1 (estrogen receptor 1) (Homo sapiens, UniProt P03372).
T1 construct: expressed in transfected cells; host or cells: HepG2
The data set can be described thus: ATG_ERa_TRANS: Factorial reporter gene assay (HepG2). The format is cell-based. Conditions: HepG2; scale not given, looks like -log10 of molar active concentration; 0 = no activity. The method, boiled down: (§1)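 HepG2 cells transfected with multiplexed reporter libraries: cis-acting binding-site reporters (CIS) and a one-hybrid nuclear-receptor trans system (TRANS). Chemicals tested at seven concentrations, starting at the maximum tolerated concentration with three-fold serial dilutions.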
A general note: A reporter such as luciferase makes a cellular process visible.

For a further data set, the target named is T2, LXRb (NR1H2) (Homo sapiens, UniProt P55055).
T2 construct: expressed in transfected cells; host or cells: HepG2
T2 sequence (P55055 1-460): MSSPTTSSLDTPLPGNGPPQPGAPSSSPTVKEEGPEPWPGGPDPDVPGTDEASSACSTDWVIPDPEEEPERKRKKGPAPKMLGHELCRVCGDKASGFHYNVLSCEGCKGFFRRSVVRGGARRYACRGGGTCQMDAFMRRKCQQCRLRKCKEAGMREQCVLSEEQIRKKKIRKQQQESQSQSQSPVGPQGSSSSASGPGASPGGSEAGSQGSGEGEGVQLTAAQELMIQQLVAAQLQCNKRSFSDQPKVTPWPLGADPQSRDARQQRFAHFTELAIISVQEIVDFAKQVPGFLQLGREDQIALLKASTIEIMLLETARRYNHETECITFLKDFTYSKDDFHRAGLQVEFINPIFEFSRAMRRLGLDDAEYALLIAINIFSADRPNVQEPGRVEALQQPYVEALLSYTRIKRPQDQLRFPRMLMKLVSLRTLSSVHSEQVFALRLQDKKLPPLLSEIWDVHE
The data set can be described thus: ATG_LXRb_TRANS: Factorial reporter gene assay (HepG2). The format is cell-based. The settings on record: HepG2; scale not given, looks like -log10 of molar active concentration; 0 = no activity. In outline: as §1

For another data set, the system named is CYP1A2. Description: CLZD_CYP1A2: Change in expression of CYP1A2 (primary human hepatocytes). The format is cell-based. The settings on record: 24 hr, scale not given, looks like -log10 of molar active concentration, 0 = no activity. The method, boiled down:
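Read-out: mRNA change by multiplexed quantitative nuclease protection assay. Primary human hepatocytes; 5 concentrations, 0.004-40 µM; exposures 6, 24, 48 hr.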

In a further data set the test system is LXRa (NR1H2). Description: NCGC_LXR_Agonist: GAL4 BLAM Reporter gene assay: LXRa. The settings on record: agonist mode; scale not given, looks like -log10 of molar active concentration; 0 = no activity. The format is cell-based, human. The method, then: (§2) These assays measure binding constants and enzyme inhibition values for nuclear receptors. The targets include [drawing 67] , [drawing 68] , [drawing 69] , [drawing 70] , [drawing 71] , [drawing 72] , [drawing 73] , [drawing 74] , [drawing 75] and [drawing 76] . Each of the nuclear receptor targets was measured in agonist mode. Assays were run at the NIH Chemical Genomics Center (Rockville, MD).
(§3) Cell-based HTS Assays: These assays measuring binding constants and enzyme inhibition values for nuclear receptors. The targets include AR, ER, FXR, LXR, PPARα, PPARδ, PPARγ, RXRα, RXRβ and PXR. Each of the nuclear receptor targets was measured in both agonist and antagonist mode, but the antagonist data is still undergoing analysis due to possible interference between cytotoxicity and assay activity, so antagonist mode data were not used in the present analysis. Assays were run at the NIH Chemical Genomics Center (Rockville, MD) as part of the Tox21 collaboration. […] The R^2 was required to be ≥0.5. Values where only the highest concentration exceeded 50% activity were excluded to eliminate weak or false positives. Detailed description of the methods, data and analysis methods for this dataset will be presented in a separate publication.

The next data set concerns the target T3, RXRa (RXRA) (Homo sapiens, UniProt P19793).
T3 sequence (P19793 227-462 limits assumed): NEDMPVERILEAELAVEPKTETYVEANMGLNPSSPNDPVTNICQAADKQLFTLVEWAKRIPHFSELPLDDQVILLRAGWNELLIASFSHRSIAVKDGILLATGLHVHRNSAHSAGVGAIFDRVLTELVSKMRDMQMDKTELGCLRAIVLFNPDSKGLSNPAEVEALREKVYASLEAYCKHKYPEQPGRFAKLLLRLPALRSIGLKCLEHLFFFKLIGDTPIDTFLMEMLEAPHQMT
Description: NCGC_RXRa_Agonist: GAL4 BLAM Reporter gene assay: RXRa. The class given is cell-based. Conditions: agonist mode; scale not given, looks like -log10 of molar active concentration; 0 = no activity. The method, then:
as §2, §3

A further data set relates to Rat Liver. The settings on record: rat chronic study, liver, preneoplastic lesion; coded 6 / 0, code not explained here; ref ToxRefDB; cited from earlier work.

T1 sequence (P03372 whole entry): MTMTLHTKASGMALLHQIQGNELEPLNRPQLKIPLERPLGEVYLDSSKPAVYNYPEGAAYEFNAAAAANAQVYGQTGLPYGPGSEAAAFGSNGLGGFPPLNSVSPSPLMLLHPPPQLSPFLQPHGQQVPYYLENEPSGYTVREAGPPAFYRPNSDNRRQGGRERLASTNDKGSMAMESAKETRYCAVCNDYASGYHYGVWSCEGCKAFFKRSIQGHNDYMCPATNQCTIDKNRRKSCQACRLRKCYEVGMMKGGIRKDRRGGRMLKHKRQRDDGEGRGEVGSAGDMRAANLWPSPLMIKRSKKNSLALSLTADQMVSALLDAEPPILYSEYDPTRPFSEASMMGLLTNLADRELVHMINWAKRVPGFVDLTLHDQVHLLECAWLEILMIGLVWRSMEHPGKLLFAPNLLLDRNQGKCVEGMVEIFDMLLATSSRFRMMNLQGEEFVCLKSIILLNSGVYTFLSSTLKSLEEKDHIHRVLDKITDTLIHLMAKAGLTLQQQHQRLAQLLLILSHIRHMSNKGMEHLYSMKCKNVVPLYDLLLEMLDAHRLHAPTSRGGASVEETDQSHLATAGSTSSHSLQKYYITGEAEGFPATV

`CC(C)N1C(=O)N(c2ccccc2)CS/C1=N\C(C)(C)C` [r45]: the ATG_ERa_TRANS in data set [1] came out at 0. On LXRb (NR1H2), this compound yielded an ATG_LXRb_TRANS of 0. The compound further yielded a CLZD_CYP1A2_24 in the data set with CYP1A2 of 0. The compound further displayed an NCGC_LXR_Agonist in the data set with LXRa (NR1H2) of 0. This compound also gave an NCGC_RXRa_Agonist on RXRa (RXRA) of 0. In the data set on Rat Liver, the CHR_Rat_Liver_2_PreneoplasticLesion is listed as 6.
`CCCCOCN(C(=O)CCl)c1c(CC)cccc1CC` [r46] displayed an ATG_ERa_TRANS in data set [1] of 0. In addition, the ATG_LXRb_TRANS at LXRb (NR1H2) was determined as 0. The CLZD_CYP1A2_24 in the data set with CYP1A2 is reported as 0. This compound displayed an NCGC_LXR_Agonist with LXRa (NR1H2) of 0. Moreover, the NCGC_RXRa_Agonist on RXRa (RXRA) is recorded as 0. Besides, the CHR_Rat_Liver_2_PreneoplasticLesion in the data set on Rat Liver was 0.
`CCSC(=O)N(CC(C)C)CC(C)C` [r49]: the ATG_ERa_TRANS in data set [1] was found to be 0. The ATG_LXRb_TRANS at LXRb (NR1H2) came out at 0. Besides, the CLZD_CYP1A2_24 in the data set on CYP1A2 was 0. Further, the NCGC_LXR_Agonist in the data set on LXRa (NR1H2) was 0. This compound displayed an NCGC_RXRa_Agonist on RXRa (RXRA) of 0. The CHR_Rat_Liver_2_PreneoplasticLesion in the data set on Rat Liver was 0.
As to `CC1=C(C(=O)Nc2ccccc2)SCCO1` [r53], the ATG_ERa_TRANS in data set [1] turned out to be 0. The same compound gave an ATG_LXRb_TRANS on LXRb (NR1H2) of 0. Besides, the CLZD_CYP1A2_24 in the data set on CYP1A2 turned out to be 4.782. In addition, in the data set with LXRa (NR1H2), the NCGC_LXR_Agonist came out at 0. At RXRa (RXRA), this compound came in with an NCGC_RXRa_Agonist of 0. Besides, the CHR_Rat_Liver_2_PreneoplasticLesion in the data set on Rat Liver is 0.
Take `CCOC(=O)C(Cl)Cc1cc(-n2nc(C)n(C(F)F)c2=O)c(F)cc1Cl` (stereo not drawn) [r54]: in data set [1], the ATG_ERa_TRANS is given as 0. At LXRb (NR1H2), this compound returned an ATG_LXRb_TRANS of 0. Also, the CLZD_CYP1A2_24 in the data set with CYP1A2 is reported as 0. This compound gave an NCGC_LXR_Agonist with LXRa (NR1H2) of 0. The same compound returned an NCGC_RXRa_Agonist at RXRa (RXRA) of 0. Moreover, the CHR_Rat_Liver_2_PreneoplasticLesion in the data set with Rat Liver is recorded as 0.
With `Nc1cnn(-c2ccccc2)c(=O)c1Cl` [r56], the ATG_ERa_TRANS in data set [1] is on record as 0. In addition, on LXRb (NR1H2), the ATG_LXRb_TRANS is 0. The same compound showed a CLZD_CYP1A2_24 in the data set with CYP1A2 of 4.955. The compound also registered an NCGC_LXR_Agonist in the data set with LXRa (NR1H2) of 0. Moreover, the NCGC_RXRa_Agonist on RXRa (RXRA) is 0. Also, the CHR_Rat_Liver_2_PreneoplasticLesion in the data set on Rat Liver is recorded as 0.
`CC(C)OC(=O)Nc1cccc(Cl)c1` [r59] returned an ATG_ERa_TRANS in data set [1] of 0. In addition, the ATG_LXRb_TRANS on LXRb (NR1H2) was found to be 0. The CLZD_CYP1A2_24 in the data set with CYP1A2 is 5.159. This compound gave an NCGC_LXR_Agonist in the data set on LXRa (NR1H2) of 0. The same compound returned an NCGC_RXRa_Agonist on RXRa (RXRA) of 0. Also, the CHR_Rat_Liver_2_PreneoplasticLesion in the data set on Rat Liver was 6.
In data set [1], `COc1nc(C)nc(NC(=O)NS(=O)(=O)c2ccccc2Cl)n1` [r62] yielded an ATG_ERa_TRANS of 0. The compound also showed an ATG_LXRb_TRANS at LXRb (NR1H2) of 0. This compound yielded a CLZD_CYP1A2_24 with CYP1A2 of 0. This compound also returned an NCGC_LXR_Agonist in the data set on LXRa (NR1H2) of 0. In addition, the NCGC_RXRa_Agonist on RXRa (RXRA) was determined as 0. Also, in the data set on Rat Liver, the CHR_Rat_Liver_2_PreneoplasticLesion is 0.
Compound `COc1nc(C)nc(NC(=O)NS(=O)(=O)c2ccccc2Cl)n1` [r63] had an ATG_ERa_TRANS in data set [1] of 0. The ATG_LXRb_TRANS at LXRb (NR1H2) is on record as 0. Also, in the data set on CYP1A2, the CLZD_CYP1A2_24 is on record as 0. Besides, the NCGC_LXR_Agonist in the data set with LXRa (NR1H2) amounted to 0. This compound also gave an NCGC_RXRa_Agonist on RXRa (RXRA) of 0. For the same compound, in the data set with Rat Liver, the CHR_Rat_Liver_2_PreneoplasticLesion is 0.
